# Reference: patent US20180110777A1, “METHOD FOR REGULATION OF TELOMERE LENGTH” (The Johns Hopkins University, priority 2015, published 2018)
# Assays:
# SL13 cells [1] = test: ADDIT assay (addition of de novo initiated telomeres; modified STELA with PacBio sequencing or Southern blot); type: cell-based, mouse
# Source text: To critically access the role of ATM, as well as other potential telomere length regulators, an assay was developed that measures telomere repeat addition in cells over 48 hr. CAST/EiJ mouse fibroblast cell line was engineered to (SL13) contain a conditional mTR allele and a modified chromosome 4 (chr4) with an internal 480 bp telomere ‘seed’ sequence followed by a unique I-Sce1 endonuclease cut site (FIG. 5 and see Experimental Procedures). The internal telomere ‘seed’ sequence can be conditionally exposed by I-Sce1 endonuclease cleavage (FIG. 1A) and then be elongated by telomerase in a manner similar to de novo telomere addition shown to occur in yeast (Diede and Gottschling, 1999, Cell 99, 723-733).
# To better detect the telomere elongation, the single telomere length analysis (STELA) assay was modified (Baird et al., 2004, Hum Mol Genet 13, 1515-1524), to measure telomere length at the in vivo cut chr4. The linker, ‘telorette’, was ligated to the telomere and PCR amplified the telomere using the ‘teltail’ primer and an internal primer in the hygromycin resistance (HYG) sequence on the engineered chromosome (FIG. 1B). To determine the un-extended cut chromosome length in vitro, a different linker was designed, ‘IScerette’, which anneals to the 4-nt 3′ overhang created by the I-Sce1 endonuclease (FIG. 1B). PCR using the forward primers, F1 or F2, and the teltail generated products of predicted size on a Southern blot (data not shown).
# To further verify telomere addition had occurred, the PCR products were sequenced with Pacific Biosciences (PacBio®) sequencing. PacBio® produces long sequence reads that allowed us to determine telomere length. While sequencing errors, predominantly point insertions and deletions, occurred as expected, the telomere repeats were easily recognizable. To assure products were full length, the PacBio® reads were filtered to examine only those that had the unique HYG sequence followed by the seed telomere repeat sequence and also had the ‘teltail’ primer sequence (FIG. 6). […] The I-Sce1 site is shown boxed (FIG. 1C). Three regions of variant telomere repeats were noted, evident as darker stripes in the aligned reads, that were present in the original SL13 clone, and served as useful sequence reference points (FIG. 1C). If there were degradation past these variants and then new TTAGGG (SEQ ID NO: 100) repeat synthesis in vivo, these landmarks would be removed.
# The sequence length distribution in the ADDIT assay represents telomere elongation, incomplete telomere replication and in vivo end resection (as well as PacBio® sequencing errors).
# Cell lines were grown in DMEM (Gibco) supplemented with 1% Penicillin/Streptomycin/Glutamine (PSG) and 10% heat inactivated FBS (Invitrogen). SL13 cells were grown in DMEM (Gibco) supplemented with 1% PSG and 10% Tet system approved FBS (Clontech, #631107). Cells were treated with ATM inhibitor KU55933 (R&D Systems, #3544), ATR inhibitor VE821 (Selleckchem, #S8007) or PARP1 inhibitor Olaparib (Selleckchem, #1060) at indicated concentrations or DMSO as a control. For the ADDIT assay, SL13 cells were treated with final concentration 2 μg/ml of doxycycline for typically 48 hr or as indicated.
# The original STELA protocol used for human cells (Baird et al., 2004, Hum Mol Genet 13, 1515-1524) was modified to measure telomere lengths on the cut end of chr4 in SL13 cells. Briefly, genomic DNA was extracted using Puregene Core Kit A™ (Qiagen). 4 μg of genomic DNA was digested with Sph1 (NEB) and later diluted to 10 ng/μl in water. For the in vitro IScerette sample, genomic DNA was digested with SphI and I-SceI (NEB) prior to ligation. The ligation was carried out at 35° C. for at least 12 hr in a volume of 10 μl containing 10 ng of digested genomic DNA, 0.9 μM of telorette linkers or IScerette linker and 0.5 U of T4 DNA ligase (NEB) in 1×T4 ligation buffer. […]
# SL13 cells [2] = test: Telomere Southern blot after lentiviral overexpression of mTR and mTERT; type: cell-based, mouse; details: SL13 cells transduced with lentivirus expressing mTR and mTERT; day 6
structure (smiles),measurement,setting,value
CN[C@H]1CCc2cc(OC)c(OC)c(OC)c2-c2ccc(OC)c(=O)cc21 [colcemid],de novo telomere addition / telomere elongation in ADDIT assay (in words),"SL13 cells [1]; PacBio sequencing of STELA products, compared to controls",No significant difference of de novo elongation
CN1CC[C@H](c2c(O)cc(O)c3c(=O)cc(-c4ccccc4Cl)oc23)[C@H](O)C1 [flavopiridol],percentage of reads with de novo telomere addition,"SL13 cells [1]; 400 nM flavopiridol, 48 hrs, DMSO control 24%",less than 2%
same,elongation in Southern blot analysis of STELA PCR products,SL13 cells [1]; flavopiridol-treated sample,minimal elongation beyond the chr4 I-Sce1-induced cut base line
CS(=O)(=O)c1ccc(-c2cnc(N)c(C(=O)Nc3ccccc3)n2)cc1 [VE821],telomere elongation on overexpression of telomerase (Southern blot),SL13 cells [2],subtle but reproducible decreased elongation at day 6
